Laboratory results as given in patent US6358885B1, “Substituted phenylheterocyclic herbicides” (Mississippi State University, priority 1992, dated 2002).

Columns and labels:
bedstraw = assay: Test B preemergence/postemergence greenhouse plant response rating 0 to 10; type: in vivo, Galium aparine; settings: 0 to 10 scale
Method in brief: (§1)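 Test chemicals, dissolved in a non-phytotoxic solvent, were applied to soil at planting and, at the same time, over foliage of seedlings at the one to four leaf stage.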

cheatgrass = assay: as above; type: in vivo, Bromus secalinus; settings: 0 to 10 scale
Method in brief: as §1

cocklebur = assay: as above; type: in vivo, Xanthium pensylvanicum; settings: 0 to 10 scale
Method in brief: as §1

cotton [1] = assay: as above; type: in vivo, Gossypium hirsutum; settings: 0 to 10 scale
Method in brief: as §1

crabgrass = assay: as above; type: in vivo, Digitaria spp.; settings: 0 to 10 scale
Method in brief: as §1

giant foxtail [2] = assay: as above; type: in vivo, Setaria faberii; settings: 0 to 10 scale
Method in brief: as §1

morningglory = assay: as above; type: in vivo, Ipomoea hederacea; settings: 0 to 10 scale
Method in brief: as §1

rape = assay: as above; type: in vivo, Brassica napus; settings: 0 to 10 scale
Method in brief: as §1

barley = assay: Test C preemergence/postemergence greenhouse plant response rating 0 to 100; type: in vivo, Hordeum vulgare; settings: POSTEMERGENCE; for Plant response rating Barley Igri: 0 to 100 scale
Method in brief: (§2)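 Compounds in non-phytotoxic solvent went onto sandy loam before emergence (seeded one day earlier) or onto plants at the one-to-four leaf stage. Duck salad was treated via flood water (~2.5 cm, maintained) over silt loam.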

chickweed = assay: as above; type: in vivo, Stellaria media; settings: POSTEMERGENCE; for Plant response rating, Chickweed: 0 to 100 scale
Method in brief: as §2

cotton [3] = assay: as above; type: in vivo, Gossypium hirsutum; settings: POSTEMERGENCE; for Plant response rating, Cotton: 0 to 100 scale
Method in brief: as §2

giant foxtail [4] = assay: as above; type: in vivo, Setaria faberii; settings: POSTEMERGENCE; for Plant response rating, Giant foxtail: 0 to 100 scale
Method in brief: as §2

lambsquarters = assay: as above; type: in vivo, Chenopodium album; settings: POSTEMERGENCE; for Plant response rating Lambsquarters: 0 to 100 scale
Method in brief: as §2

pigweed = assay: as above; type: in vivo, Amaranthusretroflexus; settings: POSTEMERGENCE; for Plant response rating Pigweed: 0 to 100 scale
Method in brief: as §2

soybean = assay: as above; type: in vivo, Glycine max; settings: POSTEMERGENCE; for Plant response rating, Soybean: 0 to 100 scale
Method in brief: as §2

velvetleaf = assay: as above; type: in vivo, Abutilon theophrasti; settings: POSTEMERGENCE; for Plant response rating, Velvetleaf: 0 to 100 scale
Method in brief: as §2

umbrella sedge = assay: Test C flood test plant response rating 0 to 100; type: in vivo, Cyperus difformis; settings: for Plant response rating Umbrella sedge: flood test species listed under POSTEMERGENCE, 0 to 100 scale
Method in brief: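 Compounds in non-phytotoxic solvent applied preemergence to sandy loam one day after planting, postemergence at the 1–4 leaf stage, or to ~2.5 cm floodwater over silt loam.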

duck salad = assay: Test C flood test plant response rating 0 to 100; type: in vivo, Heteranthera limosa; settings: for Plant response rating Duck salad: flood test species listed under POSTEMERGENCE, 0 to 100 scale
Method in brief: as §2

[5] = POSTEMERGENCE section, flood test, Rate 4 g/ha
[6] = Rate 16 g/ha, under POSTEMERGENCE head (flood test species)

C#CC(C)N1C(=O)COc2cc(F)c(-c3nn4c(c3Cl)CCCC4)cc21 (centres unmarked) [Compound 50]
Plant response rating, Bedstraw (bedstraw; POSTEMERGENCE, Rate 10 g/ha): 10 | Plant response rating, Bedstraw (bedstraw; POSTEMERGENCE, Rate 50 g/ha): 10 | Plant response rating, Bedstraw (bedstraw; PREEMERGENCE, Rate 10 g/ha): 3 | Plant response rating, Bedstraw (bedstraw; PREEMERGENCE, Rate 50 g/ha): 10 | Plant response rating, Cheatgrass (cheatgrass; POSTEMERGENCE, Rate 10 g/ha): 5 | Plant response rating, Cheatgrass (cheatgrass; POSTEMERGENCE, Rate 50 g/ha): 6 | Plant response rating, Cheatgrass (cheatgrass; PREEMERGENCE, Rate 10 g/ha): 2 | Plant response rating, Cheatgrass (cheatgrass; PREEMERGENCE, Rate 50 g/ha): 3 | Plant response rating, Cocklebur (cocklebur; POSTEMERGENCE, Rate 10 g/ha): 9 | Plant response rating, Cocklebur (cocklebur; POSTEMERGENCE, Rate 50 g/ha): 10 | Plant response rating, Cocklebur (cocklebur; PREEMERGENCE, Rate 10 g/ha): 0 | Plant response rating, Cocklebur (cocklebur; PREEMERGENCE, Rate 50 g/ha): 0 | Plant response rating, Cotton (cotton [1]; POSTEMERGENCE, Rate 10 g/ha): 9 | Plant response rating, Cotton (cotton [1]; POSTEMERGENCE, Rate 50 g/ha): 10 | Plant response rating, Cotton (cotton [1]; PREEMERGENCE, Rate 10 g/ha): 0 | Plant response rating, Cotton (cotton [1]; PREEMERGENCE, Rate 50 g/ha): 0 | Plant response rating, Crabgrass (crabgrass; POSTEMERGENCE, Rate 10 g/ha): 3 | Plant response rating, Crabgrass (crabgrass; POSTEMERGENCE, Rate 50 g/ha): 4 | Plant response rating, Crabgrass (crabgrass; PREEMERGENCE, Rate 10 g/ha): 0 | Plant response rating, Crabgrass (crabgrass; PREEMERGENCE, Rate 50 g/ha): 0 | Plant response rating, Giant foxtail (giant foxtail [2]; POSTEMERGENCE, Rate 10 g/ha): 4 | Plant response rating, Giant foxtail (giant foxtail [2]; POSTEMERGENCE, Rate 50 g/ha): 4 | Plant response rating, Giant foxtail (giant foxtail [2]; PREEMERGENCE, Rate 10 g/ha): 0 | Plant response rating, Giant foxtail (giant foxtail [2]; PREEMERGENCE, Rate 50 g/ha): 3 | Plant response rating, Morningglory (morningglory; POSTEMERGENCE, Rate 10 g/ha): 10 | Plant response rating, Morningglory (morningglory; POSTEMERGENCE, Rate 50 g/ha): 10 | Plant response rating, Morningglory (morningglory; PREEMERGENCE, Rate 50 g/ha): 2 | Plant response rating, Rape (rape; POSTEMERGENCE, Rate 10 g/ha): 9 | Plant response rating, Rape (rape; POSTEMERGENCE, Rate 50 g/ha): 10 | Plant response rating, Rape (rape; PREEMERGENCE, Rate 50 g/ha): 8 | Plant response rating Barley Igri (barley; 62 g/ha): 40 | Plant response rating Barley Igri (barley; 250 g/ha): 50 | Plant response rating (0 to 100), Barley Igri (barley; Rate 1 g/ha): 0 | Plant response rating (0 to 100), Barley Igri (barley; Rate 4 g/ha): 20 | Plant response rating (0 to 100), Barley Igri (barley; Rate 16 g/ha): 30 | Plant response rating, Chickweed (chickweed; 62 g/ha): 100 | Plant response rating, Chickweed (chickweed; 250 g/ha): 100 | Plant response rating (0 to 100), Chickweed (chickweed; Rate 1 g/ha): 20 | Plant response rating (0 to 100), Chickweed (chickweed; Rate 4 g/ha): 30 | Plant response rating (0 to 100), Chickweed (chickweed; Rate 16 g/ha): 80 | Plant response rating, Cotton (cotton [3]; 62 g/ha): 100 | Plant response rating, Cotton (cotton [3]; 250 g/ha): 100 | Plant response rating (0 to 100), Cotton (cotton [3]; Rate 1 g/ha): 70 | Plant response rating (0 to 100), Cotton (cotton [3]; Rate 4 g/ha): 100 | Plant response rating (0 to 100), Cotton (cotton [3]; Rate 16 g/ha): 100 | Plant response rating, Giant foxtail (giant foxtail [4]; 62 g/ha): 50 | Plant response rating, Giant foxtail (giant foxtail [4]; 250 g/ha): 50 | Plant response rating (0 to 100), Giant foxtail (giant foxtail [4]; Rate 1 g/ha): 20 | Plant response rating (0 to 100), Giant foxtail (giant foxtail [4]; Rate 4 g/ha): 30 | Plant response rating (0 to 100), Giant foxtail (giant foxtail [4]; Rate 16 g/ha): 50 | Plant response rating Lambsquarters (lambsquarters; 62 g/ha): 100 | Plant response rating Lambsquarters (lambsquarters; 250 g/ha): 100 | Plant response rating (0 to 100), Lambsquarters (lambsquarters; Rate 4 g/ha): 100 | Plant response rating (0 to 100), Lambsquarters (lambsquarters; Rate 16 g/ha): 100 | Plant response rating Pigweed (pigweed; 62 g/ha): 100 | Plant response rating Pigweed (pigweed; 250 g/ha): 100 | Plant response rating (0 to 100), Pigweed (pigweed; Rate 1 g/ha): 85 | Plant response rating (0 to 100), Pigweed (pigweed; Rate 4 g/ha): 100 | Plant response rating (0 to 100), Pigweed (pigweed; Rate 16 g/ha): 100 | Plant response rating, Soybean (soybean; 62 g/ha): 90 | Plant response rating, Soybean (soybean; 250 g/ha): 90 | Plant response rating (0 to 100), Soybean (soybean; Rate 1 g/ha): 40 | Plant response rating (0 to 100), Soybean (soybean; Rate 4 g/ha): 60 | Plant response rating (0 to 100), Soybean (soybean; Rate 16 g/ha): 70 | Plant response rating, Velvetleaf (velvetleaf; 62 g/ha): 100 | Plant response rating, Velvetleaf (velvetleaf; 250 g/ha): 100 | Plant response rating (0 to 100), Velvetleaf (velvetleaf; Rate 1 g/ha): 70 | Plant response rating (0 to 100), Velvetleaf (velvetleaf; Rate 4 g/ha): 90 | Plant response rating (0 to 100), Velvetleaf (velvetleaf; Rate 16 g/ha): 100 | Plant response rating (0 to 100), Umbrella sedge (umbrella sedge; [5]): 0 | Plant response rating (0 to 100), Umbrella sedge (umbrella sedge; [6]): 0 | Plant response rating Umbrella sedge (umbrella sedge; 62 g/ha): 75 | Plant response rating Umbrella sedge (umbrella sedge; 250 g/ha): 95 | Plant response rating (0 to 100), Duck salad (duck salad; [5]): 0 | Plant response rating (0 to 100), Duck salad (duck salad; [6]): 0 | Plant response rating Duck salad (duck salad; 62 g/ha): 0 | Plant response rating Duck salad (duck salad; 250 g/ha): 90
